Values after ≈ are worked out from the molar mass of the structure shown. Active and inactive are the calls of the source. The calls are words filed in the database; no cut-off is given here.
Key:
Salmonella typhi = experiment: Antibacterial activity against Bacillus typhi after 24 hrs by micro broth dilution assay; format: functional, Salmonella enterica subsp. enterica serovar Typhi; conditions: Salmonella enterica
Pseudomonas aeruginosa [1] = experiment: Antibacterial activity against Pseudomonas aeruginosa incubated for 24 hrs followed by plating onto tryptic soy agar medium and measured after 24 hrs; format: functional
Pichia norvegensis = experiment: Antifungal against Candida mycoderma after 24 hrs by two fold serial dilution method; format: functional
Pseudomonas aeruginosa [2] = experiment: Ratio of MBC for Pseudomonas aeruginosa to MIC for Pseudomonas aeruginosa; format: functional
Aspergillus flavus = experiment: Antifungal against Aspergillus flavus after 24 hrs by two fold serial dilution method; format: functional
Cyberlindnera jadinii = experiment: Antifungal against Candida utilis after 24 hrs by two fold serial dilution method; format: functional; conditions: Williopsis jadinii
Staphylococcus aureus [3] = experiment: Ratio of MBC for Staphylococcus aureus ATCC 25923 to MIC for Staphylococcus aureus ATCC 25923; format: functional
Micrococcus luteus = experiment: Antibacterial activity against Micrococcus luteus ATCC4698 after 24 hrs by micro broth dilution assay; format: functional; conditions: ATCC4698, 24 h
Escherichia coli [4] = experiment: Antibacterial activity against Escherichia coli JM109 after 24 hrs by micro broth dilution assay; format: functional; conditions: JM109, 24 h
Staphylococcus aureus [5] = experiment: Antibacterial activity against Staphylococcus aureus ATCC 25923 incubated for 24 hrs followed by plating onto tryptic soy agar medium and measured after 24 hrs; format: functional; conditions: ATCC 25923, 24 h
Saccharomyces cerevisiae = experiment: Antifungal against Saccharomyces cerevisiae after 24 hrs by two fold serial dilution method; format: functional
Staphylococcus aureus [6] = experiment: Antibacterial activity against Staphylococcus aureus ATCC 25923 after 24 hrs by micro broth dilution assay; format: functional; conditions: ATCC 25923, 24 h
Bacillus subtilis = experiment: Antibacterial activity against Bacillus subtilis after 24 hrs by micro broth dilution assay; format: functional
Shigella dysenteriae = experiment: Antibacterial activity against Shigella dysenteriae after 24 hrs by micro broth dilution assay; format: functional
Pseudomonas aeruginosa [7] = experiment: Antibacterial activity against Pseudomonas aeruginosa after 24 hrs by micro broth dilution assay; format: functional
Staphylococcus aureus [8] = experiment: Antibacterial activity against methicillin-resistant Staphylococcus aureus N315 incubated for 24 hrs followed by plating onto tryptic soy agar medium and measured after 24 hrs; format: functional; conditions: N315, 24 h
Candida albicans = experiment: Antifungal against Candida albicans ATCC 76615 after 24 hrs by two fold serial dilution method; format: functional; conditions: ATCC 76615, 24 h
Staphylococcus aureus [9] = experiment: Ratio of MBC for methicillin-resistant Staphylococcus aureus N315 to MIC for methicillin-resistant Staphylococcus aureus N315; format: functional
Bacillus = experiment: Antibacterial activity against Bacillus proteus ATCC 13315 after 24 hrs by micro broth dilution assay; format: functional; conditions: ATCC 13315, 24 h
Staphylococcus aureus [10] = experiment: Antibacterial activity against methicillin-resistant Staphylococcus aureus N315 after 24 hrs by micro broth dilution assay; format: functional; conditions: N315, 24 h
Escherichia coli [11] = experiment: Antibacterial activity against Escherichia coli DH52 after 24 hrs by micro broth dilution assay; format: functional; conditions: DH52, 24 h
Staphylococcus aureus [12] = experiment: Antibacterial activity against methicillin-resistant Staphylococcus aureus N315 after 16 serial passages by two-fold serial dilution assay; format: functional, organism-based

CCCCn1c(-c2cc(-c3ccc(Cl)cc3)nc(N)n2)nc2ccccc21
MIC (Salmonella typhi): 8 µg/mL (≈ 21.2 µM)
MBC (Pseudomonas aeruginosa [1]): 512 µg/mL (≈ 1350 µM)
MIC (Pichia norvegensis): 4 µg/mL (≈ 10.6 µM)
Ratio (Pseudomonas aeruginosa [2]): 8
MIC (Aspergillus flavus): 256 µg/mL (≈ 677 µM)
MIC (Cyberlindnera jadinii): 2 µg/mL (≈ 5.29 µM)
Ratio (Staphylococcus aureus [3]): 1
MIC (Micrococcus luteus): 64 µg/mL (≈ 169 µM)
MIC (Escherichia coli [4]): 64 µg/mL (≈ 169 µM)
MBC (Staphylococcus aureus [5]): 16 µg/mL (≈ 42.3 µM)
MIC (Saccharomyces cerevisiae): 128 µg/mL (≈ 339 µM)
MIC (Staphylococcus aureus [6]): 16 µg/mL (≈ 42.3 µM)
MIC (Bacillus subtilis): 64 µg/mL (≈ 169 µM)
MIC (Shigella dysenteriae): 256 µg/mL (≈ 677 µM)
MIC (Pseudomonas aeruginosa [7]): 64 µg/mL (≈ 169 µM)
MBC (Staphylococcus aureus [8]): 64 µg/mL (≈ 169 µM)
MIC (Candida albicans): 64 µg/mL (≈ 169 µM)
Ratio (Staphylococcus aureus [9]): 2
MIC (Bacillus): 4 µg/mL (≈ 10.6 µM)
MIC (Staphylococcus aureus [10]): 32 µg/mL (≈ 84.7 µM)
MIC (Escherichia coli [11]): 128 µg/mL (≈ 339 µM)

CCCCn1c(-c2cc(-c3ccc(C)cc3)nc(N)n2)nc2ccccc21
MIC (Salmonella typhi): 32 µg/mL (≈ 89.5 µM)
MBC (Pseudomonas aeruginosa [1]): 16 µg/mL (≈ 44.8 µM)
MIC (Pichia norvegensis): 8 µg/mL (≈ 22.4 µM)
MIC (Aspergillus flavus): 64 µg/mL (≈ 179 µM)
MIC (Cyberlindnera jadinii): 4 µg/mL (≈ 11.2 µM)
Ratio (Staphylococcus aureus [3]): 4
MIC (Micrococcus luteus): 16 µg/mL (≈ 44.8 µM)
MIC (Escherichia coli [4]): 16 µg/mL (≈ 44.8 µM)
MBC (Staphylococcus aureus [5]): 32 µg/mL (≈ 89.5 µM)
MIC (Saccharomyces cerevisiae): 32 µg/mL (≈ 89.5 µM)
MIC (Staphylococcus aureus [6]): 8 µg/mL (≈ 22.4 µM)
MIC (Bacillus subtilis): 16 µg/mL (≈ 44.8 µM)
MIC (Shigella dysenteriae): 16 µg/mL (≈ 44.8 µM)
MIC (Pseudomonas aeruginosa [7]): 8 µg/mL (≈ 22.4 µM)
MBC (Staphylococcus aureus [8]): 16 µg/mL (≈ 44.8 µM)
MIC (Candida albicans): 128 µg/mL (≈ 358 µM)
Ratio (Staphylococcus aureus [9]): 1
MIC (Bacillus): 16 µg/mL (≈ 44.8 µM)
MIC (Staphylococcus aureus [10]): 16 µg/mL (≈ 44.8 µM)
MIC (Escherichia coli [11]): 32 µg/mL (≈ 89.5 µM)

Nc1nc(-c2ccc(Cl)cc2)cc(-c2nc3ccccc3[nH]2)n1
MIC (Salmonella typhi): 512 µg/mL (≈ 1590 µM)
MBC (Pseudomonas aeruginosa [1]): 512 µg/mL (≈ 1590 µM)
MIC (Pichia norvegensis): 512 µg/mL (≈ 1590 µM)
Ratio (Pseudomonas aeruginosa [2]): 4
MIC (Aspergillus flavus): 4 µg/mL (≈ 12.4 µM)
MIC (Cyberlindnera jadinii): 2 µg/mL (≈ 6.22 µM)
Ratio (Staphylococcus aureus [3]): 4
MIC (Micrococcus luteus): 64 µg/mL (≈ 199 µM)
MIC (Escherichia coli [4]): 32 µg/mL (≈ 99.4 µM)
MBC (Staphylococcus aureus [5]): 256 µg/mL (≈ 796 µM)
MIC (Saccharomyces cerevisiae): 512 µg/mL (≈ 1590 µM)
MIC (Staphylococcus aureus [6]): 64 µg/mL (≈ 199 µM)
MIC (Bacillus subtilis): 64 µg/mL (≈ 199 µM)
MIC (Shigella dysenteriae): 32 µg/mL (≈ 99.4 µM)
MIC (Pseudomonas aeruginosa [7]): 128 µg/mL (≈ 398 µM)
MBC (Staphylococcus aureus [8]): 256 µg/mL (≈ 796 µM)
MIC (Candida albicans): 1 µg/mL (≈ 3.11 µM)
Ratio (Staphylococcus aureus [9]): 2
MIC (Bacillus): 8 µg/mL (≈ 24.9 µM)
MIC (Staphylococcus aureus [10]): 128 to 512 µg/mL (≈ 398 to 1590 µM)
MIC (Escherichia coli [11]): 128 µg/mL (≈ 398 µM)

CCn1cc(C(=O)O)c(=O)c2cc(F)c(N3CCNCC3)cc21 [NORFLOXACIN]
Activity (Staphylococcus aureus [12]): inactive
MIC (Salmonella typhi): 1 µg/mL (≈ 3.13 µM)
MIC (Micrococcus luteus): 1 µg/mL (≈ 3.13 µM)
MIC (Escherichia coli [4]): 1 µg/mL (≈ 3.13 µM)
MIC (Staphylococcus aureus [6]): 8 µg/mL (≈ 25.1 µM)
MIC (Bacillus subtilis): 2 µg/mL (≈ 6.26 µM)
MIC (Shigella dysenteriae): 16 µg/mL (≈ 50.1 µM)
MIC (Pseudomonas aeruginosa [7]): 1 µg/mL (≈ 3.13 µM)
MIC (Bacillus): 4 µg/mL (≈ 12.5 µM)
MIC (Staphylococcus aureus [10]): 1 µg/mL (≈ 3.13 µM)
MIC (Escherichia coli [11]): 1 µg/mL (≈ 3.13 µM)

CCCCn1c(-c2cc(-c3ccc(F)cc3)nc(N)n2)nc2ccccc21
MIC (Salmonella typhi): 8 µg/mL (≈ 22.1 µM)
MBC (Pseudomonas aeruginosa [1]): > 512 µg/mL
MIC (Pichia norvegensis): 8 µg/mL (≈ 22.1 µM)
MIC (Aspergillus flavus): 512 µg/mL (≈ 1420 µM)
MIC (Cyberlindnera jadinii): 8 µg/mL (≈ 22.1 µM)
Ratio (Staphylococcus aureus [3]): 2
MIC (Micrococcus luteus): 512 µg/mL (≈ 1420 µM)
MIC (Escherichia coli [4]): 256 µg/mL (≈ 708 µM)
MBC (Staphylococcus aureus [5]): 256 µg/mL (≈ 708 µM)
MIC (Saccharomyces cerevisiae): 32 µg/mL (≈ 88.5 µM)
MIC (Staphylococcus aureus [6]): 128 µg/mL (≈ 354 µM)
MIC (Bacillus subtilis): 1 µg/mL (≈ 2.77 µM)
MIC (Shigella dysenteriae): 8 µg/mL (≈ 22.1 µM)
MIC (Pseudomonas aeruginosa [7]): 512 µg/mL (≈ 1420 µM)
MBC (Staphylococcus aureus [8]): > 512 µg/mL
MIC (Candida albicans): 512 µg/mL (≈ 1420 µM)
MIC (Bacillus): 64 µg/mL (≈ 177 µM)
MIC (Staphylococcus aureus [10]): 256 µg/mL (≈ 708 µM)
MIC (Escherichia coli [11]): 8 µg/mL (≈ 22.1 µM)

Nc1nc(-c2nc3ccccc3[nH]2)cc(-c2ccc(Cl)cc2Cl)n1
MIC (Salmonella typhi): 16 µg/mL (≈ 44.9 µM)
MBC (Pseudomonas aeruginosa [1]): 64 µg/mL (≈ 180 µM)
MIC (Pichia norvegensis): 2 µg/mL (≈ 5.61 µM)
Ratio (Pseudomonas aeruginosa [2]): 2
MIC (Aspergillus flavus): 8 µg/mL (≈ 22.5 µM)
MIC (Cyberlindnera jadinii): 2 µg/mL (≈ 5.61 µM)
Ratio (Staphylococcus aureus [3]): 1
MIC (Micrococcus luteus): 1 µg/mL (≈ 2.81 µM)
MIC (Escherichia coli [4]): 64 µg/mL (≈ 180 µM)
MBC (Staphylococcus aureus [5]): 8 µg/mL (≈ 22.5 µM)
MIC (Saccharomyces cerevisiae): 8 µg/mL (≈ 22.5 µM)
MIC (Staphylococcus aureus [6]): 8 µg/mL (≈ 22.5 µM)
MIC (Bacillus subtilis): 8 µg/mL (≈ 22.5 µM)
MIC (Shigella dysenteriae): 16 µg/mL (≈ 44.9 µM)
MIC (Pseudomonas aeruginosa [7]): 32 µg/mL (≈ 89.8 µM)
MBC (Staphylococcus aureus [8]): 16 µg/mL (≈ 44.9 µM)
MIC (Candida albicans): 1 µg/mL (≈ 2.81 µM)
Ratio (Staphylococcus aureus [9]): 2
MIC (Bacillus): 1 µg/mL (≈ 2.81 µM)
MIC (Staphylococcus aureus [10]): 8 µg/mL (≈ 22.5 µM)
MIC (Escherichia coli [11]): 16 µg/mL (≈ 44.9 µM)

— ChEMBL document CHEMBL4251572, “Novel aminopyrimidinyl benzimidazoles as potentially antimicrobial agents: Design, synthesis and biological evaluation” (Eur J Med Chem, 2018)
